This test concerns c-Myc. Description: c-Myc immunofluorescence assay. Type of test: cell-based, human. Conditions: A549 cells, 24 hours treatment, anti-c-Myc immunofluorescence. An outline of the steps:
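High-content imaging (20×) of PFA-fixed A549 cells immunostained for c-Myc with DAPI nuclei, after 24 h compound treatment at increasing concentrations. Per-cell c-Myc signal in identified cell regions was plotted against dose and fitted by logistic regression to give EC50.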

Structures can show the parent of a compound that is named as a salt.

In the case of `CCN(CC)CCCNC(=O)c1ccc2c(c1)sc1nc(-c3ccccc3)cn12` [compound 107, N-(3-(diethylamino)propyl)-2-phenylbenzo[d]imidazo [2,1-b]thiazole-7-carboxamide], the “Myc Efficacy (−LogEC50)” value is “++ (++ ≥5 and <6)”.
The entry for `CCCNC(=O)c1ccc2c(c1)sc1nc(-c3ccc(C)cc3)cn12` [compound 108, N-propyl-2-(p-tolyl)benzo[d]imidazo[2,1-b]thiazole-7-carboxamide] is “++ (++ ≥5 and <6)”; for `CCNC(=O)c1ccc2c(c1)sc1nc(-c3ccc(C)cc3)cn12` [compound 109, N-ethyl-2-(p-tolyl)benzo[d]imidazo[2,1-b]thiazole-7-carboxamide] it is “++ (++ ≥5 and <6)”; for `CC(=O)NCCCNC(=O)c1ccc2c(c1)sc1nc(-c3ccc(C)cc3)cn12` [compound 110, N-(3-acetamidopropyl)-2-(p-tolyl)benzo[d]imidazo[2,1-b]thiazole-7-carboxamide] it is “− (− ≤3)”.
The entry for `CCN(CC)CCCNC(=O)c1ccc2c(c1)sc1nc(-c3ccc(Cl)cc3)cn12` [compound 111, 2-(4-chlorophenyl)-N-(3-(diethylamino)propyl)benzo [d]imidazo[2,1-b]thiazole-7-carboxamide] is “++ (++ ≥5 and <6)”; for `Cc1ccc(-c2cn3c(n2)sc2cc(C(=O)NC[C@H]4CCNC4)ccc23)cc1` [compound 114, (S)-N-(pyrrolidin-3-ylmethyl)-2-(p-tolyl)benzo[d]imidazo[2,1-b]thiazole-7-carboxamide formate] it is “++ (++ ≥5 and <6)”.
In the case of `Cc1ccc(-c2cn3c(n2)sc2cc(C(=O)NCCCN)ccc23)cc1` [compound 115, N-(3-aminopropyl)-2-(p-tolyl)benzo[d]imidazo[2,1-b]thiazole-7-carboxamide] it was “+ (+ >3 and <5)”; in that of `Cc1ccc(-c2cn3c(n2)sc2cc(C(=O)NC[C@@H]4CCNC4)ccc23)cc1` [compound 116, (R)-N-(pyrrolidin-3-ylmethyl)-2-(p-tolyl)benzo[d]imidazo [2,1-b]thiazole-7-carboxamide formate], “++ (++ ≥5 and <6)”; in that of `Cc1ccc(-c2cn3c(n2)sc2cc(C(=O)NCC4CNC4)ccc23)cc1` [compound 117, N-(azetidin-3-ylmethyl)-2-(p-tolyl)benzo[d]imidazo [2,1-b]thiazole-7-carboxamide], “+ (+ >3 and <5)”.
`CCN(CC)CCCNC(=O)c1ccc2c(c1)sc1nc(-c3cccc(C)c3)cn12` [compound 118, N-(3-(diethylamino)propyl)-2-(m-tolyl)benzo[d]imidazo [2,1-b]thiazole-7-carboxamide]: the “Myc Efficacy (−LogEC50)” value is “+++ (+++ ≥6)”.
In the case of `CCN1CCC[C@H]1CNC(=O)c1ccc2c(c1)sc1nc(-c3cccc(OC)c3)cn12` [compound 119, (S)-N-((1-ethylpyrrolidin-2-yl)methyl)-2-(3-methoxyphenyl)benzo[d] imidazo[2,1-b]thiazole-7-carboxamide] it was “++ (++ ≥5 and <6)”; in that of `Cc1ccc(-c2cn3c(n2)sc2cc(C(=O)NCCN)ccc23)cc1` [compound 122, N-(2-aminoethyl)-2-(p-tolyl)benzo[d]imidazo[2,1-b]thiazole-7-carboxamide], “+ (+ >3 and <5)”; in that of `CCN(CC)CCCNC(=O)c1ccc2c(c1)sc1nc(-c3ccccc3C)cn12` [compound 123, N-(3-(diethylamino)propyl)-2-(o-tolyl)benzo[d]imidazo [2,1-b]thiazole-7-carboxamide], “++ (++ ≥5 and <6)”.
The entry for `CCN(CC)CCCNC(=O)c1ccc2c(c1)sc1nc(-c3ccccc3Cl)cn12` [compound 124, 2-(2-ehlorophenyl)-N-(3-(diethylamino)propyl)benzo [d]imidazo[2,1-b]thiazole-7-carboxamide] is “++ (++ ≥5 and <6)”; for `CCN(CC)CCCNC(=O)c1ccc2c(c1)sc1nc(-c3ccc(C(=O)NC)cc3)cn12` [compound 125, N-(3-(diethylamino)propyl)-2-(4-(methylcarbamoyl)phenyl) benzo[d]imidazo[2,1-b]thiazole-7-carboxamide] it is “++ (++ ≥5 and <6)”.
The entry for `CCc1ccc(-c2cn3c(n2)sc2cc(C(=O)NCCCN(CC)CC)ccc23)cc1` [compound 126, N-(3-(diethylamino)propyl)-2-(4-ethylphenyl)benzo[d] imidazo[2,1-b]thiazole-7-carboxamide] is “++ (++ ≥5 and <6)”.
For the molecule `CCN1CCC[C@@H]1CNC(=O)c1ccc2c(c1)sc1nc(-c3cccc(OC)c3)cn12` [compound 127, (R)-N-((1-ethylpyrrolidin-2-yl)methyl)-2-(3-methoxyphenyl)benzo[d] imidazo[2,1-b]thiazole-7-carboxamide], the “Myc Efficacy (−LogEC50)” value was “+ (+ >3 and <5)”.
In the case of `CCN(CC)CCCNC(=O)c1ccc2c(c1)sc1nc(-c3ccccc3F)cn12` [compound 129, N-(3-(diethylamino)propyl)-2-(2-fluorophenyl)benzo[d] imidazo[2,1-b]thiazole-7-carboxamide] it was “++ (++ ≥5 and <6)”; in that of `CCN(CC)CCCNC(=O)c1ccc2c(c1)sc1nc(-c3cccc(F)c3)cn12` [compound 130, N-(3-(diethylamino)propyl)-2-(3-fluorophenyl)benzo[d] imidazo[2,1-b]thiazole-7-carboxamide], “++ (++ ≥5 and <6)”.
In the case of `CCN(CC)CCCNC(=O)c1ccc2c(c1)sc1nc(-c3cccc(Cl)c3)cn12` [compound 131, 2-(3-chlorophenyl)-N-(3-(diethylamino)propyl)benzo [d]imidazo[2,1-b]thiazole-7-carboxamide] it was “++ (++ ≥5 and <6)”.
The entry for `O=C(NCCCN1CCCCC1)c1ccc2c(c1)sc1nc(-c3ccc(Cl)cc3)cn12` [compound 132, 2-(4-chlorophenyl)-N-(3-(piperidin-1-yl)propyl) benzo[d]imidazo[2,1-b]thiazole-7-carboxamide] is “++ (++ ≥5 and <6)”.
`Cc1cccc(-c2cn3c(n2)sc2cc(C(=O)NCCCN4CCC(F)(F)CC4)ccc23)c1` [compound 133, N-(3-(4,4-difluoropiperidin-1-yl)propyl)-2-(m-tolyl)benzo[d]imidazo[2,1-b]thiazole-7-carboxamide]: the “Myc Efficacy (−LogEC50)” value was “++ (++ ≥5 and <6)”.
The entry for `Cc1cccc(-c2cn3c(n2)sc2cc(C(=O)NCCCN4CCOCC4)ccc23)c1` [compound 134, N-(3-morpholinopropyl)-2-(m-tolyl)benzo[d]imidazo[2,1-b]thiazole-7-carboxamide] is “+ (+ >3 and <5)”; for `Cc1cccc(-c2cn3c(n2)sc2cc(C(=O)NCCCN4CCS(=O)(=O)CC4)ccc23)c1` [compound 135, N-(3-(1,1-dioxidothiomorpholino)propyl)-2-(m-tolyl)benzo[d]imidazo[2,1-b]thiazole-7-carboxamide] it is “+ (+ >3 and <5)”; for `CCN(CC)CCCNC(=O)c1ccc2c(c1)sc1nc(-c3ccc(C(C)C)cc3)cn12` [compound 136, N-(3-(diethylamino)propyl)-2-(4-isopropylphenyl)benzo[d] imidazo[2,1-b]thiazole-7-carboxamide formate] it is “++ (++ ≥5 and <6)”.
On to `Cc1cccc(-c2cn3c(n2)sc2cc(C(=O)NCCCN4CCC(F)CC4)ccc23)c1` [compound 137, N-(3-(4-fluoropiperidin-1-yl)propyl)-2-(m-tolyl)benzo[d]imidazo[2,1-b]thiazole-7-carboxamide], for which the “Myc Efficacy (−LogEC50)” value was “++ (++ ≥5 and <6)”.
Turning to `Cc1cccc(-c2cn3c(n2)sc2cc(C(=O)N[C@H]4C[C@@H](N5CCCCC5)C4)ccc23)c1` [compound 138, N-((1s,3s)-3-(piperidin-1-yl)cyclobutyl)-2-(m-tolyl)benzo[d]imidazo[2,1-b]thiazole-7-carboxamide], the “Myc Efficacy (−LogEC50)” value is “++ (++ ≥5 and <6)”.
In the case of `Cc1cccc(-c2cn3c(n2)sc2cc(C(=O)NCCCC4CCOCC4)ccc23)c1` [compound 139, N-(3-(tetrahydro-2H-pyran-4-yl)propyl)-2-(m-tolyl)benzo[d]imidazo[2,1-b]thiazole-7-carboxamide] it was “+ (+ >3 and <5)”; in that of `Cc1cccc(-c2cn3c(n2)sc2cc(C(=O)NC4CCNCC4)ccc23)c1` [compound 140, N-(piperidin-4-yl)-2-(m-tolyl)benzo[d]imidazo[2,1-b]thiazole-7-carboxamide], “++ (++ ≥5 and <6)”.
In the case of `Cc1cccc(-c2cn3c(n2)sc2cc(C(=O)N4CCNCC4)ccc23)c1` [compound 141, piperazin-1-yl(2-(m-tolyl)benzo[d]imidazo[2,1-b]thiazol-7-yl)methanone] it was “+ (+ >3 and <5)”; in that of `CCN(CC)CCCNC(=O)c1ccc2c(c1)sc1nc(-c3ccc(OC)cc3)cn12` [compound 142, N-(3-(diethylamino)propyl)-2-(4-methoxyphenyl)benzo[d] imidazo[2,1-b]thiazole-7-carboxamide], “++ (++ ≥5 and <6)”.
`CCN(CC)CCCNC(=O)c1ccc2c(c1)sc1nc(-c3cccc(C)c3F)cn12` [compound 143, N-(3-(diethylamino)propyl)-2-(2-fluoro-3-methylphenyl)benzo[d] imidazo[2,1-b]thiazole-7-carboxamide]: the “Myc Efficacy (−LogEC50)” value is “++ (++ ≥5 and <6)”.
The entry for `CCN(CC)CCCNC(=O)c1ccc2c(c1)sc1nc(-c3cc(C)ccc3F)cn12` [compound 144, N-(3-(diethylamino)propyl)-2-(2-fluoro-5-methylphenyl)benzo[d] imidazo[2,1-b]thiazole-7-carboxamide] is “+ (+ >3 and <5)”.
The entry for `CCN(CC)CCCNC(=O)c1ccc2c(c1)sc1nc(-c3cccc(C#N)c3)cn12` [compound 145, 2-(3-cyanophenyl)-N-(3-(diethylamino)propyl)benzo [d]imidazo[2,1-b]thiazole-7-carboxamide] is “++ (++ ≥5 and <6)”.
